Reference: the kinase profiling compilation of Christmann-Franck et al. (2016)
One block for each compound: values may come before it.

Tests used:
Assay in all cases: KINOMEscan competition binding
MINK1 (human) = MINK1 (human) (UniProt Q8N4C8); details: compound 10.0 µM
TNIK (human) = TNIK (human) (UniProt Q9UKE5); details: compound 10.0 µM
CAMKK1 (human) = CAMKK1 (human) (UniProt Q8N5S9); details: compound 10.0 µM
PRKD1 (human) = PRKD1 (human) (UniProt Q15139); details: compound 10.0 µM
PRKD3 (human) = PRKD3 (human) (UniProt O94806); details: compound 10.0 µM
[1] = test system: EGFR (human), P00533 [G719S]; details: compound 10.0 µM
CSNK1G3 (human) = CSNK1G3 (human) (UniProt Q9Y6M4); details: compound 10.0 µM
MAPK15 (human) = MAPK15 (human) (UniProt Q8TD08); details: for kinase still bound, per cent of control: compound 10.0 µM
TAOK3 (human) = TAOK3 (human) (UniProt Q9H2K8); details: compound 10.0 µM
RPS6KA2 KD2 (human) = RPS6KA2 KD2 (human) (UniProt Q15349); details: compound 10.0 µM
STK16 (human) = STK16 (human) (UniProt O75716); details: compound 10.0 µM
MYLK4 (human) = MYLK4 (human) (UniProt Q86YV6); details: compound 10.0 µM
MYLK (human) = MYLK (human) (UniProt Q15746); details: compound 10.0 µM
CSNK2A1 (human) = CSNK2A1 (human) (UniProt P68400); details: for kinase still bound, per cent of control: compound 10.0 µM
RPS6KA4 KD2 (human) = RPS6KA4 KD2 (human) (UniProt O75676); details: compound 10.0 µM
PDGFRB (human) = PDGFRB (human) (UniProt P09619); details: compound 10.0 µM
[2] = test system: KIT (human), P10721 [V559D]; details: compound 10.0 µM
[3] = target: TYK2 JH2 pseudokinase (human) (UniProt P29597); details: compound 10.0 µM
STK33 (human) = STK33 (human) (UniProt Q9BYT3); details: compound 10.0 µM
PLK4 (human) = PLK4 (human) (UniProt O00444); details: compound 10.0 µM
GAK (human) = GAK (human) (UniProt O14976); details: compound 10.0 µM
ACVR1 (human) = ACVR1 (human) (UniProt Q04771); details: compound 10.0 µM
RPS6KA5 KD2 (human) = RPS6KA5 KD2 (human) (UniProt O75582); details: compound 10.0 µM
ACVR2B (human) = ACVR2B (human) (UniProt Q13705); details: compound 10.0 µM
MKNK1 (human) = MKNK1 (human) (UniProt Q9BUB5); details: compound 10.0 µM
CHUK (human) = CHUK (human) (UniProt O15111); details: compound 10.0 µM
CSNK1G1 (human) = CSNK1G1 (human) (UniProt Q9HCP0); details: compound 10.0 µM
MAPK8 (human) = MAPK8 (human) (UniProt P45983); details: compound 10.0 µM
RIPK2 (human) = RIPK2 (human) (UniProt O43353); details: compound 10.0 µM
TTK (human) = TTK (human) (UniProt P33981); details: compound 10.0 µM
CDK16 (human) = CDK16 (human) (UniProt Q00536); details: compound 10.0 µM
NEK2 (human) = NEK2 (human) (UniProt P51955); details: compound 10.0 µM
[4] = test system: EGFR (human), P00533 [747-751 del / S ins]; details: compound 10.0 µM
AAK1 (human) = AAK1 (human) (UniProt Q2M2I8); details: compound 10.0 µM
[5] = test system: FLT3 (human), P36888 [K663Q]; details: compound 10.0 µM
[6] = test system: FLT3 (human), P36888 [D835Y]; details: compound 10.0 µM
STK11 (human) = STK11 (human) (UniProt Q15831); details: compound 10.0 µM
[7] = test system: FLT3 (human), P36888 [N841I]; details: compound 10.0 µM
CLK3 (human) = CLK3 (human) (UniProt P49761); details: compound 10.0 µM
ULK2 (human) = ULK2 (human) (UniProt Q8IYT8); details: for kinase still bound, per cent of control: compound 10.0 µM
DAPK3 (human) = DAPK3 (human) (UniProt O43293); details: compound 10.0 µM
[8] = target: JAK3 JH1 catalytic (human) (UniProt P52333); details: compound 10.0 µM
Chain of JAK3 JH1 catalytic (human) (P52333 whole entry, looked up): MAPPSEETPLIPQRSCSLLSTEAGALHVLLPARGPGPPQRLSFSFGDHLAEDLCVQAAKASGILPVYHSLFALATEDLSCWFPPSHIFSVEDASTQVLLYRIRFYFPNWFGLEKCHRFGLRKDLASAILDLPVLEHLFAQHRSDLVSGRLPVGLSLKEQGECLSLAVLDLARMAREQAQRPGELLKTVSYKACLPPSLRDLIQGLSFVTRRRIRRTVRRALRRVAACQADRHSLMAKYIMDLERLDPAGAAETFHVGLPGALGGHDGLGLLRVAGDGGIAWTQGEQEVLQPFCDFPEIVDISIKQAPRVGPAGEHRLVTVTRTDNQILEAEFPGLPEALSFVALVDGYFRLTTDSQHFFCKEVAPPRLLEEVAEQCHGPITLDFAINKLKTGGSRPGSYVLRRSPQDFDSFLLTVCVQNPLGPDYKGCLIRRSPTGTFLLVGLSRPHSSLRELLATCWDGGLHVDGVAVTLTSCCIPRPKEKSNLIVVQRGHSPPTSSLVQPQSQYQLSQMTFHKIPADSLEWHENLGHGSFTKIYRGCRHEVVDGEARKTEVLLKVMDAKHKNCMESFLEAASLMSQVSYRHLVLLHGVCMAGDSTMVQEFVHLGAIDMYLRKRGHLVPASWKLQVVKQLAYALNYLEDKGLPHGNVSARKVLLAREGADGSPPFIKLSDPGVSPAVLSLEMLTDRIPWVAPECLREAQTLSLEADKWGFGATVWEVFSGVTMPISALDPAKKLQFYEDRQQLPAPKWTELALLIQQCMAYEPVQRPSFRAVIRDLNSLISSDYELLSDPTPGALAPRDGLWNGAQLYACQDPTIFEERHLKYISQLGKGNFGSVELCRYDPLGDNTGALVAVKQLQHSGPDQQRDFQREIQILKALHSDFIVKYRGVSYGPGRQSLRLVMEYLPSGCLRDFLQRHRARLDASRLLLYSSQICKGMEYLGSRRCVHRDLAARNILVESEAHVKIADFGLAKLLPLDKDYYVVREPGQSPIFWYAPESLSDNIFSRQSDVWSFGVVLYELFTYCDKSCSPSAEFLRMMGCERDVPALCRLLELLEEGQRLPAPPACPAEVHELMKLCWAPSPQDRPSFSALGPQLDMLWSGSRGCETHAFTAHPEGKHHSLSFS

Chain of PRKD3 (human) (O94806 whole entry, looked up): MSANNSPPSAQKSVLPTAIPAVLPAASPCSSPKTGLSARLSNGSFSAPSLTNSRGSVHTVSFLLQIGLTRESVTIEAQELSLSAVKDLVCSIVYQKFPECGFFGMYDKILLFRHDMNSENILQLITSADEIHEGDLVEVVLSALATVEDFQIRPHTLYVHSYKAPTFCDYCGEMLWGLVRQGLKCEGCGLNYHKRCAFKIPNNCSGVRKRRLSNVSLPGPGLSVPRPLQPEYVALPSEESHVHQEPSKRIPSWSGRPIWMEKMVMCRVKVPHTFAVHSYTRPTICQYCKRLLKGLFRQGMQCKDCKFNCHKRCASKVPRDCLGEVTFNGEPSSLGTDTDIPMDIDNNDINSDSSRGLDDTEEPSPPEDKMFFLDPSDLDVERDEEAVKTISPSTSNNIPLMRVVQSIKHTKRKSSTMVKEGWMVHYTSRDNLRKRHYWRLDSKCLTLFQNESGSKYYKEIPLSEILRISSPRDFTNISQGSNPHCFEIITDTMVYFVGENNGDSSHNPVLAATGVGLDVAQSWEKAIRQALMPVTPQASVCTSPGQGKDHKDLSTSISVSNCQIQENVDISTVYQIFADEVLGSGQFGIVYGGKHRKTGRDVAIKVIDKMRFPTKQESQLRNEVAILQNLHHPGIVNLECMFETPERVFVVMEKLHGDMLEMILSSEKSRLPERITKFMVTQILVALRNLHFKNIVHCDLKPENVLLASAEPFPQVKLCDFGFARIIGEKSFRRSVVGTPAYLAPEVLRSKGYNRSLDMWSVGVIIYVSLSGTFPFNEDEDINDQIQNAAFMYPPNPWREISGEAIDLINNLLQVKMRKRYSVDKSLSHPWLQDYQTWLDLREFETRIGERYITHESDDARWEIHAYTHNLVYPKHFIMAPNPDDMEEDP
Chain of TAOK3 (human) (Q9H2K8 whole entry, looked up): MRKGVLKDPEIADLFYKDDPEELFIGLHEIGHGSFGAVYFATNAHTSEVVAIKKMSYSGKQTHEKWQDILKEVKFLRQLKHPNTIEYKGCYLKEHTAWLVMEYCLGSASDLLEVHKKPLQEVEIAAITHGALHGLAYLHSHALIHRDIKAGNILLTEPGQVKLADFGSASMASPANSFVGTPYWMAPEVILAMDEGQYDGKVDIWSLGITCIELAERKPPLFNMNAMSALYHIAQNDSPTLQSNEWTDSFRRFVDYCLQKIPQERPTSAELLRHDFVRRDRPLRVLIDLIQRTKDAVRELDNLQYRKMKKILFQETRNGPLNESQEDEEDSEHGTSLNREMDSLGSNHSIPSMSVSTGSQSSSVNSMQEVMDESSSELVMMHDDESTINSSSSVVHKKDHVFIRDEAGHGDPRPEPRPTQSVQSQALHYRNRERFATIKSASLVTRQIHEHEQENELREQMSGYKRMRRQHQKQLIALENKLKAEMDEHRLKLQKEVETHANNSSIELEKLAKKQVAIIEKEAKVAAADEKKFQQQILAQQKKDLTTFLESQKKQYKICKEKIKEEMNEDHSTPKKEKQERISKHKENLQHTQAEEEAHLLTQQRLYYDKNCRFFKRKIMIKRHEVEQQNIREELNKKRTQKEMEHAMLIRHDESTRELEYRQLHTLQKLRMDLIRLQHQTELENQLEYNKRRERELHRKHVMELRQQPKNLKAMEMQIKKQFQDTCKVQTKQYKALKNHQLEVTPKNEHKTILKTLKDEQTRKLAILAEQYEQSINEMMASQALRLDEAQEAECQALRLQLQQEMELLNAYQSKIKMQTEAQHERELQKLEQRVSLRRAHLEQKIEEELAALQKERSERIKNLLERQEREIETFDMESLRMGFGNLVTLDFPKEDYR
Chain of STK11 (human) (Q15831 whole entry, looked up): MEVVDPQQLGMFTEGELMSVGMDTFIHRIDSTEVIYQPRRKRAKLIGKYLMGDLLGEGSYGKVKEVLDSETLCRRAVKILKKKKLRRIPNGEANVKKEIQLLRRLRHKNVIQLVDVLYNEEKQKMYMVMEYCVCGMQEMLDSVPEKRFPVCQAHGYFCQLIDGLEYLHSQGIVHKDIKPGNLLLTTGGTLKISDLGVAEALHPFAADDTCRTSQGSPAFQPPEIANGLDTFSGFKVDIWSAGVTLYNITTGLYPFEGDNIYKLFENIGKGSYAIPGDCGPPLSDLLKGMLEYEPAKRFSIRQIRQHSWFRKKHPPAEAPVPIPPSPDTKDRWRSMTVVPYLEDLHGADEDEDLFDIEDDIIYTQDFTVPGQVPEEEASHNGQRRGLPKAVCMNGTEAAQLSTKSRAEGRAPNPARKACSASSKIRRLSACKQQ
Chain of CAMKK1 (human) (Q8N5S9 whole entry, looked up): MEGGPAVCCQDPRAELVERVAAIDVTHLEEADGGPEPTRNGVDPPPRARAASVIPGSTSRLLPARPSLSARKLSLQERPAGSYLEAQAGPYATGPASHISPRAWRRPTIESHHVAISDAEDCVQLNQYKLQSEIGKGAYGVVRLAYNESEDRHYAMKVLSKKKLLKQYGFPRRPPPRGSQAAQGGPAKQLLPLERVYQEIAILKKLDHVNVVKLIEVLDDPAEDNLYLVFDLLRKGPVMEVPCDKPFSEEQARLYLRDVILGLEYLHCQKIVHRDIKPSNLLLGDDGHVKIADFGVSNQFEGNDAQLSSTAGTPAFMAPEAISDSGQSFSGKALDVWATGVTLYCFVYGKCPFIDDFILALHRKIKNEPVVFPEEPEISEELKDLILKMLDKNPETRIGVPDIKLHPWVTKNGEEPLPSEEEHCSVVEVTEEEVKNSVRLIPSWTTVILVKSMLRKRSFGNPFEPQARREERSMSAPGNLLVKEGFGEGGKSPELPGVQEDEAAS
Chain of ACVR2B (human) (Q13705 whole entry, looked up): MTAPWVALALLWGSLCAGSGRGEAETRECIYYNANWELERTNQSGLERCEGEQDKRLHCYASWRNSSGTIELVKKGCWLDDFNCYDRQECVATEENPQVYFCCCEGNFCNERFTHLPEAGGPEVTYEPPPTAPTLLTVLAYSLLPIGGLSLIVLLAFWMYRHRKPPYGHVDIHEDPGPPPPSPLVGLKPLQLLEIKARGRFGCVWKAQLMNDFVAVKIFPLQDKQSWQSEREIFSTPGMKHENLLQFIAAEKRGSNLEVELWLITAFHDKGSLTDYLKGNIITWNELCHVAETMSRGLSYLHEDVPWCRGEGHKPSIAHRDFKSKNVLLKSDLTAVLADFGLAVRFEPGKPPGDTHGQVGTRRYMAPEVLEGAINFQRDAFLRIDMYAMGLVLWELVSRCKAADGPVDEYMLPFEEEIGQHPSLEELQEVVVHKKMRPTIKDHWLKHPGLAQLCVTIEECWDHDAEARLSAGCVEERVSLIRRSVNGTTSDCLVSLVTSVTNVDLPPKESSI
Chain of STK33 (human) (Q9BYT3 whole entry, looked up): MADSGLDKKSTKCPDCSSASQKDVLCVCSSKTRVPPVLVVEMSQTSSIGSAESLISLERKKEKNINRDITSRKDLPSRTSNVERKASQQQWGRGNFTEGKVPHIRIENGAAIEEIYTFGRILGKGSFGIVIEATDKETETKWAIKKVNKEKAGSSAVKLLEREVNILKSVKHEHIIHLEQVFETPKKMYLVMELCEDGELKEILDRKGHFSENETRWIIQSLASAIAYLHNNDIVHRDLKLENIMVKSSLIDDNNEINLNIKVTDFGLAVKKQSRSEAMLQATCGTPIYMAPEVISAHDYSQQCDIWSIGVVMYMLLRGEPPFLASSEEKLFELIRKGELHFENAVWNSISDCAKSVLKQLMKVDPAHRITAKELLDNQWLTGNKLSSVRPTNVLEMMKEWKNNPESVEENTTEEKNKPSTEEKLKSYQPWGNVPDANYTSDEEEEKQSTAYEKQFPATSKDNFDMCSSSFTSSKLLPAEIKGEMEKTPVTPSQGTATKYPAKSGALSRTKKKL

kinase still bound, per cent of control (MINK1 (human)): 100% | kinase still bound, per cent of control (TNIK (human)): 83% | kinase still bound, per cent of control (CAMKK1 (human)): 98% | kinase still bound, per cent of control (PRKD1 (human)): 98% | kinase still bound, per cent of control (PRKD3 (human)): 69% | kinase still bound, per cent of control [1]: 100% | kinase still bound, per cent of control (CSNK1G3 (human)): 67% | kinase still bound, per cent of control (TAOK3 (human)): 1.2% | kinase still bound, per cent of control (RPS6KA2 KD2 (human)): 91% | kinase still bound, per cent of control (STK16 (human)): 59% | kinase still bound, per cent of control (MYLK4 (human)): 100% | kinase still bound, per cent of control (MYLK (human)): 63% | kinase still bound, per cent of control (CSNK2A1 (human)): 86% | kinase still bound, per cent of control (RPS6KA4 KD2 (human)): 89% | kinase still bound, per cent of control (PDGFRB (human)): 61% | kinase still bound, per cent of control [2]: 80% | kinase still bound, per cent of control [3]: 71% | kinase still bound, per cent of control (STK33 (human)): 75% | kinase still bound, per cent of control (PLK4 (human)): 1.8% | kinase still bound, per cent of control (GAK (human)): 37% | kinase still bound, per cent of control (ACVR1 (human)): 88% | kinase still bound, per cent of control (RPS6KA5 KD2 (human)): 100% | kinase still bound, per cent of control (ACVR2B (human)): 45% | kinase still bound, per cent of control (MKNK1 (human)): 28% | kinase still bound, per cent of control (CHUK (human)): 79% | kinase still bound, per cent of control (CSNK1G1 (human)): 73% | kinase still bound, per cent of control (MAPK8 (human)): 100% | kinase still bound, per cent of control (RIPK2 (human)): 66% | kinase still bound, per cent of control (TTK (human)): 78% | kinase still bound, per cent of control (CDK16 (human)): 100% | kinase still bound, per cent of control (NEK2 (human)): 100% | kinase still bound, per cent of control [4]: 100% | kinase still bound, per cent of control (AAK1 (human)): 62% | kinase still bound, per cent of control [5]: 85% | kinase still bound, per cent of control [6]: 24% | kinase still bound, per cent of control (STK11 (human)): 100% | kinase still bound, per cent of control [7]: 80% | kinase still bound, per cent of control (CLK3 (human)): 97% | kinase still bound, per cent of control (ULK2 (human)): 6.2% | kinase still bound, per cent of control (DAPK3 (human)): 100% | kinase still bound, per cent of control [8]: 93%
Compound: CN1C(=O)c2ccccc2N(C)c2nc(Nc3ccc(N4CCC(O)CC4)cc3)ncc21
kinase still bound, per cent of control (MAPK15 (human)): 100%

kinase still bound, per cent of control (MINK1 (human)): 42% | kinase still bound, per cent of control (TNIK (human)): 11% | kinase still bound, per cent of control (CAMKK1 (human)): 14% | kinase still bound, per cent of control (PRKD1 (human)): 8.2% | kinase still bound, per cent of control (PRKD3 (human)): 13% | kinase still bound, per cent of control [1]: 58% | kinase still bound, per cent of control (CSNK1G3 (human)): 3.2% | kinase still bound, per cent of control (TAOK3 (human)): 8.6% | kinase still bound, per cent of control (RPS6KA2 KD2 (human)): 1.2% | kinase still bound, per cent of control (STK16 (human)): 36% | kinase still bound, per cent of control (MYLK (human)): 42% | Kd (CSNK2A1 (human)): 31 nM | kinase still bound, per cent of control (CSNK2A1 (human)): 0.65% | kinase still bound, per cent of control (RPS6KA4 KD2 (human)): 3.2% | kinase still bound, per cent of control (PDGFRB (human)): 67% | kinase still bound, per cent of control [2]: 70% | kinase still bound, per cent of control [3]: 72% | kinase still bound, per cent of control (STK33 (human)): 2.7% | kinase still bound, per cent of control (PLK4 (human)): 90% | kinase still bound, per cent of control (GAK (human)): 3.2% | kinase still bound, per cent of control (ACVR1 (human)): 20% | kinase still bound, per cent of control (RPS6KA5 KD2 (human)): 59% | kinase still bound, per cent of control (ACVR2B (human)): 36% | kinase still bound, per cent of control (MKNK1 (human)): 80% | kinase still bound, per cent of control (CHUK (human)): 53% | kinase still bound, per cent of control (CSNK1G1 (human)): 35% | kinase still bound, per cent of control (MAPK8 (human)): 60% | kinase still bound, per cent of control (RIPK2 (human)): 9.9% | kinase still bound, per cent of control (TTK (human)): 59% | kinase still bound, per cent of control (CDK16 (human)): 70% | kinase still bound, per cent of control (NEK2 (human)): 13% | kinase still bound, per cent of control [4]: 85% | kinase still bound, per cent of control (AAK1 (human)): 2.4% | kinase still bound, per cent of control [5]: 92% | kinase still bound, per cent of control [6]: 60% | kinase still bound, per cent of control (STK11 (human)): 17% | kinase still bound, per cent of control [7]: 67% | kinase still bound, per cent of control (CLK3 (human)): 2.8% | Kd (ULK2 (human)): 220 nM | kinase still bound, per cent of control (ULK2 (human)): 0.85% | kinase still bound, per cent of control (DAPK3 (human)): 1% | kinase still bound, per cent of control [8]: 4%
Compound: O=C1NC(=O)/C(=C/c2c[nH]c(=O)c(-c3ccc(N4CCNCC4)nc3)c2)S1
Kd (MAPK15 (human)): 390 nM | kinase still bound, per cent of control (MAPK15 (human)): 0.5%

kinase still bound, per cent of control (MINK1 (human)): 100% | kinase still bound, per cent of control (TNIK (human)): 100% | kinase still bound, per cent of control (CAMKK1 (human)): 100% | kinase still bound, per cent of control (PRKD1 (human)): 100% | kinase still bound, per cent of control (PRKD3 (human)): 100% | kinase still bound, per cent of control [1]: 100% | kinase still bound, per cent of control (CSNK1G3 (human)): 100% | kinase still bound, per cent of control (TAOK3 (human)): 72% | kinase still bound, per cent of control (RPS6KA2 KD2 (human)): 93% | kinase still bound, per cent of control (STK16 (human)): 100% | kinase still bound, per cent of control (MYLK4 (human)): 100% | kinase still bound, per cent of control (MYLK (human)): 82% | kinase still bound, per cent of control (CSNK2A1 (human)): 100% | kinase still bound, per cent of control (RPS6KA4 KD2 (human)): 100% | kinase still bound, per cent of control (PDGFRB (human)): 76% | kinase still bound, per cent of control [2]: 100% | kinase still bound, per cent of control [3]: 63% | kinase still bound, per cent of control (STK33 (human)): 100% | kinase still bound, per cent of control (PLK4 (human)): 97% | kinase still bound, per cent of control (GAK (human)): 100% | kinase still bound, per cent of control (ACVR1 (human)): 100% | kinase still bound, per cent of control (RPS6KA5 KD2 (human)): 100% | kinase still bound, per cent of control (ACVR2B (human)): 100% | kinase still bound, per cent of control (MKNK1 (human)): 100% | kinase still bound, per cent of control (CHUK (human)): 95% | kinase still bound, per cent of control (CSNK1G1 (human)): 100% | kinase still bound, per cent of control (MAPK8 (human)): 100% | kinase still bound, per cent of control (RIPK2 (human)): 100% | kinase still bound, per cent of control (TTK (human)): 100% | kinase still bound, per cent of control (CDK16 (human)): 100% | kinase still bound, per cent of control (NEK2 (human)): 100% | kinase still bound, per cent of control [4]: 99% | kinase still bound, per cent of control (AAK1 (human)): 100% | kinase still bound, per cent of control [5]: 100% | kinase still bound, per cent of control [6]: 87% | kinase still bound, per cent of control (STK11 (human)): 100% | kinase still bound, per cent of control [7]: 90% | kinase still bound, per cent of control (CLK3 (human)): 95% | kinase still bound, per cent of control (ULK2 (human)): 89% | kinase still bound, per cent of control (DAPK3 (human)): 95% | kinase still bound, per cent of control [8]: 100%
Compound: CN1C(=O)c2ccccc2N(C)c2nc(NS(=O)(=O)c3ccc(N)cc3)ncc21
kinase still bound, per cent of control (MAPK15 (human)): 99%
